Structures can show the parent of a compound that is named as a salt.
What follows are compounds tested against EGFR WT (Homo sapiens (Human), UniProt P00533) (assay: ErbB enzyme assay (CisBio HTRF-KinEASE-TK), EGFR WT). Settings: ATP at Km (25 μM), 1 h incubation.
Format: biochemical
In short: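 Compounds, serially diluted three-fold, were incubated with enzyme for 1 h at ambient temperature. Detection reagents were then added for a further hour, and the 655/620 nm HTRF ratio was normalised to uninhibited and pre-quenched controls. IC50 was fitted with a four-parameter logistic model.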

Sequence of EGFR WT (P00533 25-1210): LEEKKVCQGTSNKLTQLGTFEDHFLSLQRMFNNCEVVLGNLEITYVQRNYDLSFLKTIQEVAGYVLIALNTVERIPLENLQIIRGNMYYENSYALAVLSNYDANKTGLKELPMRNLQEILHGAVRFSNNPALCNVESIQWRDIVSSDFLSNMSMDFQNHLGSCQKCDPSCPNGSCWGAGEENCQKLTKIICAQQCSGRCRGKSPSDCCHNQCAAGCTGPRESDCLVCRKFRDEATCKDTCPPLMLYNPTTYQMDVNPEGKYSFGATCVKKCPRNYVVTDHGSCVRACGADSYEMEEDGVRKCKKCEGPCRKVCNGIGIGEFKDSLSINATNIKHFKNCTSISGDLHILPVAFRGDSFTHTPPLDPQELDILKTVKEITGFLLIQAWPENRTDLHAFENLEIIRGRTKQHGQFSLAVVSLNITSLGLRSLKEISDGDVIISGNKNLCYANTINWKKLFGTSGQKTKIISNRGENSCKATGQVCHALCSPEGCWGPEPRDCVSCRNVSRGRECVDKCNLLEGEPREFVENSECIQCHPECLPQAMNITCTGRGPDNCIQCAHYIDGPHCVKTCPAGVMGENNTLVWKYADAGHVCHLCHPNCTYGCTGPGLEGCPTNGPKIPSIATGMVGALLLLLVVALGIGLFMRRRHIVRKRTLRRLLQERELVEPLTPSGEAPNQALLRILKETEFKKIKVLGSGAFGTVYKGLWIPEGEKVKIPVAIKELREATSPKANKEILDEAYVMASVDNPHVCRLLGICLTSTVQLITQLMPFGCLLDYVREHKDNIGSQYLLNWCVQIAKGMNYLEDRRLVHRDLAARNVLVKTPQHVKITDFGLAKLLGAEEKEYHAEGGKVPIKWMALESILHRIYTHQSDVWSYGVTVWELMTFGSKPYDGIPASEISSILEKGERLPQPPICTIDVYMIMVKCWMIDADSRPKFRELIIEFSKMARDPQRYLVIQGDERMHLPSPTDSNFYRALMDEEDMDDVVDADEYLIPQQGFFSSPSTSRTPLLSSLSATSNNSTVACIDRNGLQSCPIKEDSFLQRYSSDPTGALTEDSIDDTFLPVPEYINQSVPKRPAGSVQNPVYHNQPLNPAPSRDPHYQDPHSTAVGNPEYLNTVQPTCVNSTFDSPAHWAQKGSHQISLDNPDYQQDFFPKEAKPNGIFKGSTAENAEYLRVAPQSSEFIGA

Compared with `C=CC(=O)N1CC2CCC(C1)N2c1ncc2ncnc(Nc3ccc(Oc4ccc5c(c4)nnn5C)c(C)c3)c2n1` [Compound 46, 1-(8-(8-((3-methyl-4-((1-methyl-1H-benzo[d][1,2,3]triazol-5-yl)oxy)phenyl)amino)pyrimido[5,4-d]pyrimidin-2-yl)-3,8-diazabicyclo[3.2.1]octan-3-yl)prop-2-en-1-one], `C=CC(=O)N1CCN(c2ncc3ncnc(Nc4ccc(Oc5ccc6c(c5)nnn6C)c(C)c4)c3n2)C[C@@H]1COC` [Compound 116, (R)-1-(2-(methoxymethyl)-4-(8-((3-methyl-4-((1-methyl-1H-benzo[d][1,2,3]triazol-5-yl)oxy)phenyl)amino)pyrimido[5,4-d]pyrimidin-2-y1)piperazin-1-yl)prop-2-en-1-one] is higher in IC50: < 50 nM for the first, 100 to 500 nM for the second.

First: C=CC(=O)N1CCC(Oc2ncc3ncnc(Nc4ccc(Oc5ccc6c(c5)ncn6C)c(C)c4)c3n2)C(F)(F)C1 (centres unmarked) [Compound 393, 1-(3,3-difluoro-4-((8-((3-methyl-4-((1-methyl-1H-benzo[d]imidazol-5-yl)oxy)phenyl)amino)pyrimido[5,4-d]pyrimidin-2-y1)oxy)piperidin-1-yl)prop-2-en-1-one]
Second: C=CC(=O)N1CCC(Oc2ncc3ncnc(Nc4ccc(Oc5ccc6c(c5)ncn6C)c(C)c4)c3n2)CC1 [Compound 378, 1-(4-((8-((3-methyl-4-((1-methyl-1H-benzo[d]imidazol-5-yl)oxy)phenyl)amino)pyrimido[5,4-d]pyrimidin-2-yl)oxy)piperidin-1-yl)prop-2-en-1-one]
The IC50 of the first is lower: < 50 nM for the first, 50 to 100 nM for the second. The first is the more potent here.

`C=CC(=O)N[C@H]1CN(c2ccc3ncnc(Nc4ccc(Oc5ccc6c(c5)nnn6C)c(C)c4F)c3n2)C[C@H]1F` [Compound 301, N-((3S,4R)-4-fluoro-1-(4-((2-fluoro-3-methyl-4-((1-methyl-1H-benzo[d][1,2,3]triazol-5-yl)oxy)phenyl)amino)pyrido[3,2-d]pyrimidin-6-yl)pyrrolidin-3-yl)acrylamide] and `C=CC(=O)N[C@@H]1CCCN(c2ccc3ncnc(Nc4ccc(Oc5ccc6c(c5)nnn6C)c(C)c4F)c3n2)CC1` [Compound 283, (R)-N-(1-(4-((2-fluoro-3-methyl-4-((1-methyl-1H-benzo[d][1,2,3]triazol-5-yl)oxy)phenyl)amino)pyrido[3,2-d]pyrimidin-6-yl)azepan-4-yl)acrylamide] cannot be ordered by IC50: 500 to 1000 nM for the first, ≥ 1000 nM for the second.

Compared with `C=CC(=O)N[C@H]1CCCN(c2ncc3ncnc(Nc4ccc(Oc5ccc6c(c5)nnn6C)c(C)c4F)c3n2)CC1` [Compound 168, (S)-N-(1-(8-((2-fluoro-3-methyl-4-((1-methyl-1H-benzo[d][1,2,3]triazol-5-yl)oxy)phenyl)amino)pyrimido[5,4-d]pyrimidin-2-yl)azepan-4-yl)acrylamide], `C=CC(=O)N[C@]1(C)CCCN(c2ccc3ncnc(Nc4ccc(Oc5ccc6c(c5)nnn6C)c(C)c4F)c3n2)C1` [Compound 303, (R)-N-(1-(4-((2-fluoro-3-methyl-4-((1-methyl-1H-benzo[d][1,2,3]triazol-5-yl)oxy)phenyl)amino)pyrido[3,2-d]pyrimidin-6-yl)-3-methylpiperidin-3-yl)acrylamide] is lower in IC50: 500 to 1000 nM for the first, < 50 nM for the second. The second is the more potent here.

First: C=CC(=O)N1CCC(Oc2ncc3ncnc(Nc4ccc(Oc5cc(F)c6c(c5)ncn6C)c(C)c4)c3n2)CC1 [Compound 381, 1-(4-((8-((4-((7-fluoro-1-methyl-1H-benzo[d]imidazol-5-yl)oxy)-3-methylphenyl)amino)pyrimido[5,4-d]pyrimidin-2-yl)oxy)piperidin-1-yl)prop-2-en-1-one]
Second: C=CC(=O)N1CCN(c2ncc3ncnc(Nc4ccc(Oc5cc(F)c6c(c5)ncn6C)c(C)c4)c3n2)CC[C@@H]1C [Compound 179, (S)-1-(4-(8-((4-((7-fluoro-1-methyl-1H-benzo[d]imidazol-5-yl)oxy)-3-methylphenyl)amino)pyrimido[5,4-d]pyrimidin-2-y1)-7-methyl-1,4-diazepan-1-yl)prop-2-en-1-one]
The IC50 of the first is lower: < 50 nM for the first, 100 to 500 nM for the second.

`C=CC(=O)N1CCN(c2nc3c(Nc4ccc(Oc5cc(F)c6c(c5)nnn6C)c(C)c4F)ncnc3cc2OC)CC1` [Compound 99, 1-(4-(4-((2-fluoro-4-((7-fluoro-1-methyl-1H-benzo[d][1,2,3]triazol-5-yl)oxy)-3-methylphenyl)amino)-7-methoxypyrido[3,2-d]pyrimidin-6-yl)piperazin-1-yl)prop-2-en-1-one] and `C=CC(=O)N1CCN(c2ncc3ncnc(Nc4ccc(Oc5cc(F)c6c(c5)ncn6C)c(C)c4F)c3n2)CC1` [Compound 111, 1-(4-(8-((2-fluoro-4-((7-fluoro-1-methyl-1H-benzo[d]imidazol-5-yl)oxy)-3-methylphenyl)amino)pyrimido[5,4-d]pyrimidin-2-yl)piperazin-1-y1)prop-2-en-1-one] cannot be ordered by IC50: < 50 nM for the first, < 50 nM for the second.

Going from `C=C(F)C(=O)N1CCN(c2ncc3ncnc(Nc4ccc(Oc5ccc6c(c5)nnn6C)c(C)c4)c3n2)C[C@@H]1COC` [Compound 193, (R)-2-fluoro-1-(2-(methoxymethyl)-4-(8-((3-methyl-4-((1-methyl-1H-benzo[d][1,2,3]triazol-5-yl)oxy)phenyl)amino)pyrimido[5,4-d]pyrimidin-2-yl)piperazin-1-yl)prop-2-en-1-one] to `C=CC(=O)N1CCN(c2ccc3ncnc(Nc4ccc(Oc5ccc6c(c5)nnn6C)c(C)c4)c3n2)C[C@H]1COC` [Compound 77, (S)-1-(2-(methoxymethyl)-4-(4-((3-methyl-4-((1-methyl-1H-benzo[d][1,2,3]triazol-5-yl)oxy)phenyl)amino)pyrido[3,2-d]pyrimidin-6-yl)piperazin-1-yl)prop-2-en-1-one], the IC50 falls from ≥ 1000 nM to < 50 nM.

`C=CC(=O)N1CCN(c2ccc3ncnc(Nc4ccc(Oc5ccc6c(c5)ncn6C(F)F)c(C)c4F)c3c2)CC1` [Compound 375, 1-(4-(4-((4-((1-(difluoromethyl)-1H-benzo[d]imidazol-5-yl)oxy)-2-fluoro-3-methylphenyl)amino)quinazolin-6-yl)piperazin-1-yl)prop-2-en-1-one] and `C=CC(=O)N1CCN(c2ccc3ncnc(Nc4ccc(Oc5ccc6c(c5)nnn6C)c(C)c4)c3n2)CC1` [Compound 92, 1-(4-(4-((3-methyl-4-((1-methyl-1H-benzo[d][1,2,3]triazol-5-yl)oxy)phenyl)amino)pyrido[3,2-d]pyrimidin-6-yl)piperazin-1-yl)prop-2-en-1-one] fall in the same range of IC50: 50 to 100 nM for the first, 50 to 100 nM for the second.

Compared with `C=CC(=O)N1CCN(c2ncc3ncnc(Nc4ccc(Oc5cc(F)c6c(c5)nnn6C)c(C)c4F)c3n2)C[C@H]1C1CC1` [Compound 197, (R)-1-(2-cyclopropyl-4-(8-((2-fluoro-4-((7-fluoro-1-methyl-1H-benzo[d][1,2,3]triazol-5-yl)oxy)-3-methylphenyl)amino)pyrimido[5,4-d]pyrimidin-2-yl)piperazin-1-yl)prop-2-en-1-one], `C=CC(=O)N1CCN(c2ncc3ncnc(Nc4ccc(Oc5cc(F)c6c(c5)nnn6C)c(C)c4)c3n2)C[C@H]1C` [Compound 171, (R)-1-(4-(8-((4-((7-fluoro-1-methyl-1H-benzo[d][1,2,3]triazol-5-yl)oxy)-3-methylphenyl)amino)pyrimido[5,4-d]pyrimidin-2-y1)-2-methylpiperazin-1-yl)prop-2-en-1-one] is lower in IC50: 100 to 500 nM for the first, 50 to 100 nM for the second.

`C=CC(=O)N1CCN(c2ccc3ncnc(Nc4ccc(Oc5ccc6c(c5)nnn6C)c(C)c4)c3n2)CC1CF` (centres unmarked) [Compound 313, 1-(2-(fluoromethyl)-4-(4-((3-methyl-4-((1-methyl-1H-benzo[d][1,2,3]triazol-5-yl)oxy)phenyl)amino)pyrido[3,2-d]pyrimidin-6-yl)piperazin-1-yl)prop-2-en-1-one] and `C=CC(=O)N1CCC=C(c2ccc3ncnc(Nc4ccc(Oc5ccc6c(c5)nnn6C)c(C)c4)c3n2)C1` [Compound 407, 1-(5-(4-((3-methyl-4-((1-methyl-1H-benzo[d][1,2,3]triazol-5-yl)oxy)phenyl)amino)pyrido[3,2-d]pyrimidin-6-yl)-3,6-dihydropyridin-1(2H)-yl)prop-2-en-1-one] cannot be ordered by IC50: < 50 nM for the first, < 50 nM for the second.

First: C=C(F)C(=O)N1C2C=C(c3ccc4ncnc(Nc5ccc(Oc6ccc7c(c6)nnn7C)c(C)c5)c4n3)CC1CCC2 (centres unmarked) [Compound 406, 2-fluoro-1-(3-(4-((3-methyl-4-((1-methyl-1H-benzo[d][1,2,3]triazol-5-yl)oxy)phenyl)amino)pyrido[3,2-d]pyrimidin-6-yl)-9-azabicyclo[3.3.1]non-2-en-9-yl)prop-2-en-1-one trifluoroacetate]
Second: C=CC(=O)NC1CC(N(C)c2ncc3ncnc(Nc4ccc(Oc5ccc6c(c5)nnn6C)c(C)c4)c3n2)C1 (centres unmarked) [Compound 142, N-(3-(methyl(8-((3-methyl-4-((1-methyl-1H-benzo[d][1,2,3]triazol-5-yl)oxy)phenyl)amino)pyrimido [5,4-d]pyrimidin-2-yl)amino)cyclobutyl)acrylamide]
The IC50 of the first is higher: ≥ 1000 nM for the first, 100 to 500 nM for the second. The second is the more potent here.

Compared with `C=CC(=O)N1C[C@@H](N(C)c2ccc3ncnc(Nc4ccc(Oc5ccc6c(c5)nnn6C)c(C)c4F)c3n2)CC[C@H]1C` [Compound 352, 1-((2R,5S)-5-((4-((2-fluoro-3-methyl-4-((1-methyl-1H-benzo[d][1,2,3]triazol-5-yl)oxy)phenyl)amino)pyrido[3,2-d]pyrimidin-6-yl)(methyl)amino)-2-methylpiperidin-1-yl)prop-2-en-1-one], `Cc1cc(Nc2ncnc3cnc(N4CCN(C(=O)/C=C/C(F)F)CC4)nc23)ccc1Oc1ccc2c(c1)nnn2C` [Compound 216, 4,4-difluoro-1-(4-(8-((3-methyl-4-((1-methyl-1H-benzo[d][1,2,3]triazol-5-yl)oxy)phenyl)amino)pyrimido [5,4-d]pyrimidin-2-yl)piperazin-1-yl)but-2-en-1-one] is lower in IC50: 100 to 500 nM for the first, 50 to 100 nM for the second. The second is the more potent here.

First: C=CC(=O)N1CCN(c2ncc3ncnc(Nc4ccc(Oc5cc6ncnn6cc5C)c(C)c4)c3n2)C[C@H]1C [Compound 182]
Second: C=CC(=O)N1CCN(c2ncc3ncnc(Nc4ccc(Oc5cc(C)c6c(c5)nnn6C)c(C)c4)c3n2)CC1 [Compound 130, 1-(4-(8-((4-((1,7-dimethyl-1H-benzo[d][1,2,3]triazol-5-yl)oxy)-3-methylphenyl)amino)pyrimido[5,4-d]pyrimidin-2-yl)piperazin-1-yl)prop-2-en-1-one]
The IC50 of the first is higher: 500 to 1000 nM for the first, < 50 nM for the second. The second is the more potent here.

Reference: patent publication US20250129078A1, “ERBB2 INHIBITORS” (Cogent Biosciences, Inc., priority 2023, published 2025)
